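Interpolation was linear, between the two tested concentrations surrounding the appropriate level; five concentrations were tested over 48 hours in 96-well plates. GI50 = concentration required for 50% inhibition of growth. The concentration for full growth arrest is given as TGI.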
Key:
Assay in all cases: DTP human tumour cell line panel, 48 h
SR leukemia = test system: SR leukemia
DU-145 prostate = test system: DU-145 prostate
HS 578T breast = test system: HS 578T breast
CAKI-1 renal = test system: CAKI-1 renal
UACC-257 melanoma = test system: UACC-257 melanoma
SF-268 CNS = test system: SF-268 CNS
SK-OV-3 ovarian = test system: SK-OV-3 ovarian
NCI-H522 lung = test system: NCI-H522 lung
ACHN renal = test system: ACHN renal
MALME-3M melanoma = test system: MALME-3M melanoma
U251 CNS = test system: U251 CNS
786-0 renal = test system: 786-0 renal
MDA-MB-231 breast = test system: MDA-MB-231 breast
HOP-92 NSCLC = test system: HOP-92 NSCLC
LOX IMVI melanoma = test system: LOX IMVI melanoma
K-562 leukemia = test system: K-562 leukemia
HOP-62 NSCLC = test system: HOP-62 NSCLC
NCI-H226 lung = test system: NCI-H226 lung
SK-MEL-2 melanoma = test system: SK-MEL-2 melanoma
MOLT-4 leukemia = test system: MOLT-4 leukemia
RXF 393 renal = test system: RXF 393 renal
PC-3 prostate = test system: PC-3 prostate
A549 NSCLC = test system: A549 NSCLC
IGROV1 ovarian = test system: IGROV1 ovarian
TK-10 renal = test system: TK-10 renal
OVCAR-5 ovarian = test system: OVCAR-5 ovarian
OVCAR-3 ovarian = test system: OVCAR-3 ovarian
SNB-75 CNS = test system: SNB-75 CNS
A498 renal = test system: A498 renal
HCC-2998 colon = test system: HCC-2998 colon
UACC-62 melanoma = test system: UACC-62 melanoma
HCT-15 colon = test system: HCT-15 colon
HT29 colon = test system: HT29 colon
SF-295 CNS = test system: SF-295 CNS
MDA-MB-435 = test system: MDA-MB-435
NCI-H460 lung = test system: NCI-H460 lung
MCF7 breast = test system: MCF7 breast
SN12C renal = test system: SN12C renal
SNB-19 CNS = test system: SNB-19 CNS
SF-539 CNS = test system: SF-539 CNS
HL-60(TB) leukemia = test system: HL-60(TB) leukemia
M14 melanoma = test system: M14 melanoma
T-47D breast = test system: T-47D breast
SW-620 colon = test system: SW-620 colon
BT-549 breast = test system: BT-549 breast
KM12 colon = test system: KM12 colon
OVCAR-8 ovarian = test system: OVCAR-8 ovarian
NCI-H23 lung = test system: NCI-H23 lung
COLO 205 colon = test system: COLO 205 colon
HCT-116 colon = test system: HCT-116 colon
SK-MEL-28 melanoma = test system: SK-MEL-28 melanoma
RPMI-8226 leukemia = test system: RPMI-8226 leukemia
SK-MEL-5 melanoma = test system: SK-MEL-5 melanoma
OVCAR-4 ovarian = test system: OVCAR-4 ovarian
NCI/ADR-RES ovarian = test system: NCI/ADR-RES ovarian
UO-31 renal = test system: UO-31 renal
CCRF-CEM leukemia = test system: CCRF-CEM leukemia

With `CC(C)CNc1nc(N=[N+]=[N-])nc(NCC(C)C)n1` as the compound, how does the GI50 (SR leukemia) read?
The GI50 was > 10 µM.

And the TGI (SR leukemia)?
The TGI was > 10 µM.

And the GI50 (DU-145 prostate)?
The GI50 was > 10 µM.

What about the TGI (DU-145 prostate) of the same compound?
Its TGI is > 10 µM.

And the GI50 (HS 578T breast)?
The GI50 was > 10 µM.

And the TGI (HS 578T breast)?
Its TGI is > 10 µM.

And the GI50 (CAKI-1 renal)?
The GI50 was > 10 µM.

What about the TGI (CAKI-1 renal) of the same compound?
Its TGI is > 10 µM.

What about the GI50 (UACC-257 melanoma) of the same compound?
Its GI50 is > 10 µM.

What about the TGI (UACC-257 melanoma) of the same compound?
Its TGI is > 10 µM.

And the GI50 (SF-268 CNS)?
Its GI50 is > 10 µM.

What about the TGI (SF-268 CNS) of the same compound?
Its TGI is > 10 µM.

And the GI50 (SK-OV-3 ovarian)?
The GI50 was > 10 µM.

What about the TGI (SK-OV-3 ovarian) of the same compound?
The TGI was > 10 µM.

What about the GI50 (NCI-H522 lung) of the same compound?
Its GI50 is > 10 µM.

What about the TGI (NCI-H522 lung) of the same compound?
Its TGI is > 10 µM.

And the GI50 (ACHN renal)?
Its GI50 is > 10 µM.

And the TGI (ACHN renal)?
Its TGI is > 10 µM.

And the GI50 (MALME-3M melanoma)?
The GI50 was > 10 µM.

And the TGI (MALME-3M melanoma)?
The TGI was > 10 µM.

And the GI50 (U251 CNS)?
Its GI50 is > 10 µM.

What about the TGI (U251 CNS) of the same compound?
Its TGI is > 10 µM.

What about the GI50 (786-0 renal) of the same compound?
The GI50 was > 10 µM.

And the TGI (786-0 renal)?
The TGI was > 10 µM.

What about the GI50 (MDA-MB-231 breast) of the same compound?
Its GI50 is > 10 µM.

What about the TGI (MDA-MB-231 breast) of the same compound?
Its TGI is > 10 µM.

What about the GI50 (HOP-92 NSCLC) of the same compound?
The GI50 was 7.89 µM.

And the TGI (HOP-92 NSCLC)?
The TGI was > 10 µM.

And the GI50 (LOX IMVI melanoma)?
Its GI50 is > 10 µM.

What about the TGI (LOX IMVI melanoma) of the same compound?
The TGI was > 10 µM.

And the GI50 (K-562 leukemia)?
The GI50 was > 10 µM.

And the TGI (K-562 leukemia)?
The TGI was > 10 µM.

And the GI50 (HOP-62 NSCLC)?
The GI50 was > 10 µM.

And the TGI (HOP-62 NSCLC)?
The TGI was > 10 µM.

And the GI50 (NCI-H226 lung)?
Its GI50 is > 10 µM.

And the TGI (NCI-H226 lung)?
Its TGI is > 10 µM.

And the GI50 (SK-MEL-2 melanoma)?
The GI50 was > 10 µM.

And the TGI (SK-MEL-2 melanoma)?
The TGI was > 10 µM.

What about the GI50 (MOLT-4 leukemia) of the same compound?
The GI50 was > 10 µM.

And the TGI (MOLT-4 leukemia)?
Its TGI is > 10 µM.

What about the GI50 (RXF 393 renal) of the same compound?
Its GI50 is > 10 µM.

And the TGI (RXF 393 renal)?
Its TGI is > 10 µM.

What about the GI50 (PC-3 prostate) of the same compound?
The GI50 was > 10 µM.

And the TGI (PC-3 prostate)?
Its TGI is > 10 µM.

And the GI50 (A549 NSCLC)?
Its GI50 is > 10 µM.

What about the TGI (A549 NSCLC) of the same compound?
Its TGI is > 10 µM.

And the GI50 (IGROV1 ovarian)?
The GI50 was > 10 µM.

And the TGI (IGROV1 ovarian)?
The TGI was > 10 µM.

What about the GI50 (TK-10 renal) of the same compound?
Its GI50 is > 10 µM.

What about the TGI (TK-10 renal) of the same compound?
Its TGI is > 10 µM.

What about the GI50 (OVCAR-5 ovarian) of the same compound?
The GI50 was > 10 µM.

And the TGI (OVCAR-5 ovarian)?
The TGI was > 10 µM.

What about the GI50 (OVCAR-3 ovarian) of the same compound?
The GI50 was > 10 µM.

What about the TGI (OVCAR-3 ovarian) of the same compound?
The TGI was > 10 µM.

What about the GI50 (SNB-75 CNS) of the same compound?
The GI50 was > 10 µM.

And the TGI (SNB-75 CNS)?
Its TGI is > 10 µM.

And the GI50 (A498 renal)?
Its GI50 is > 10 µM.

What about the TGI (A498 renal) of the same compound?
The TGI was > 10 µM.

What about the GI50 (HCC-2998 colon) of the same compound?
Its GI50 is > 10 µM.

And the TGI (HCC-2998 colon)?
Its TGI is > 10 µM.

What about the GI50 (UACC-62 melanoma) of the same compound?
The GI50 was > 10 µM.

And the TGI (UACC-62 melanoma)?
Its TGI is > 10 µM.

What about the GI50 (HCT-15 colon) of the same compound?
Its GI50 is > 10 µM.

And the TGI (HCT-15 colon)?
Its TGI is > 10 µM.

What about the GI50 (HT29 colon) of the same compound?
Its GI50 is > 10 µM.

What about the TGI (HT29 colon) of the same compound?
Its TGI is > 10 µM.

What about the GI50 (SF-295 CNS) of the same compound?
Its GI50 is > 10 µM.

And the TGI (SF-295 CNS)?
Its TGI is > 10 µM.

And the GI50 (MDA-MB-435)?
Its GI50 is > 10 µM.

And the TGI (MDA-MB-435)?
Its TGI is > 10 µM.

And the GI50 (NCI-H460 lung)?
The GI50 was > 10 µM.

What about the TGI (NCI-H460 lung) of the same compound?
Its TGI is > 10 µM.

And the GI50 (MCF7 breast)?
The GI50 was > 10 µM.

What about the TGI (MCF7 breast) of the same compound?
The TGI was > 10 µM.

And the GI50 (SN12C renal)?
The GI50 was > 10 µM.

And the TGI (SN12C renal)?
Its TGI is > 10 µM.

And the GI50 (SNB-19 CNS)?
Its GI50 is > 10 µM.

What about the TGI (SNB-19 CNS) of the same compound?
The TGI was > 10 µM.

What about the GI50 (SF-539 CNS) of the same compound?
The GI50 was > 10 µM.

What about the TGI (SF-539 CNS) of the same compound?
Its TGI is > 10 µM.

What about the GI50 (HL-60(TB) leukemia) of the same compound?
The GI50 was > 10 µM.

And the TGI (HL-60(TB) leukemia)?
Its TGI is > 10 µM.

What about the GI50 (M14 melanoma) of the same compound?
The GI50 was > 10 µM.

What about the TGI (M14 melanoma) of the same compound?
The TGI was > 10 µM.

And the GI50 (T-47D breast)?
Its GI50 is > 10 µM.

What about the TGI (T-47D breast) of the same compound?
The TGI was > 10 µM.

What about the GI50 (SW-620 colon) of the same compound?
The GI50 was > 10 µM.

And the TGI (SW-620 colon)?
Its TGI is > 10 µM.

What about the GI50 (BT-549 breast) of the same compound?
The GI50 was > 10 µM.

And the TGI (BT-549 breast)?
The TGI was > 10 µM.

What about the GI50 (KM12 colon) of the same compound?
The GI50 was > 10 µM.

What about the TGI (KM12 colon) of the same compound?
Its TGI is > 10 µM.

And the GI50 (OVCAR-8 ovarian)?
The GI50 was > 10 µM.

What about the TGI (OVCAR-8 ovarian) of the same compound?
Its TGI is > 10 µM.

What about the GI50 (NCI-H23 lung) of the same compound?
The GI50 was > 10 µM.

What about the TGI (NCI-H23 lung) of the same compound?
Its TGI is > 10 µM.

What about the GI50 (COLO 205 colon) of the same compound?
The GI50 was > 10 µM.

What about the TGI (COLO 205 colon) of the same compound?
Its TGI is > 10 µM.

What about the GI50 (HCT-116 colon) of the same compound?
The GI50 was > 10 µM.

What about the TGI (HCT-116 colon) of the same compound?
The TGI was > 10 µM.

What about the GI50 (SK-MEL-28 melanoma) of the same compound?
Its GI50 is > 10 µM.

And the TGI (SK-MEL-28 melanoma)?
The TGI was > 10 µM.

And the GI50 (RPMI-8226 leukemia)?
The GI50 was > 10 µM.

What about the TGI (RPMI-8226 leukemia) of the same compound?
The TGI was > 10 µM.

And the GI50 (SK-MEL-5 melanoma)?
Its GI50 is > 10 µM.

And the TGI (SK-MEL-5 melanoma)?
The TGI was > 10 µM.

And the GI50 (OVCAR-4 ovarian)?
The GI50 was > 10 µM.

And the TGI (OVCAR-4 ovarian)?
The TGI was > 10 µM.

And the GI50 (NCI/ADR-RES ovarian)?
The GI50 was > 10 µM.

And the TGI (NCI/ADR-RES ovarian)?
Its TGI is > 10 µM.

And the GI50 (UO-31 renal)?
The GI50 was > 10 µM.

And the TGI (UO-31 renal)?
Its TGI is > 10 µM.

And the GI50 (CCRF-CEM leukemia)?
Its GI50 is > 10 µM.

What about the TGI (CCRF-CEM leukemia) of the same compound?
The TGI was > 10 µM.

— PubChem BioAssay (NCI)
